Experimental data from ChEMBL document CHEMBL1143353, “Pyrazolo[1,5-a]-1,3,5-triazine as a purine bioisostere: access to potent cyclin-dependent kinase inhibitor (R)-roscovitine analogue” (J Med Chem, 2009).

Key:
[1] = target: Cyclin-dependent kinase 7/ cyclin H (Homo sapiens, UniProt P50613); experiment: Inhibition of human recombinant CDK7/cyclin H expressed in baculovirus-infected insect cells
[2] = test system: CCRF-CEM; experiment: cells; conditions: Homo sapiens, 72 h
Description: Antiproliferative activity against human CCRF-CEM cells after 72 hrs by ViaLight assay

[3] = target: CDK9/cyclin T1 (Homo sapiens, UniProt P50750); experiment: Inhibition of human recombinant CDK9/cyclin T expressed in baculovirus-infected insect cells
[4] = test system: SK-MEL-28; experiment: Antiproliferative activity against human SK-MEL-28 cells after 72 hrs by ViaLight assay; assay type: functional; conditions: SK-MEL-28, 72 h
[5] = test system: OVCAR-8; experiment: Antiproliferative activity against human OVCAR8 cells after 72 hrs by ViaLight assay; assay type: functional; conditions: OVCAR-8, 72 h
[6] = test system: SN12C; experiment: Antiproliferative activity against human SN12C cells after 72 hrs by ViaLight assay; assay type: functional
[7] = test system: BT-549; experiment: Antiproliferative activity against human BT549 cells after 72 hrs by ViaLight assay; assay type: functional; conditions: BT-549, 72 h
[8] = test system: UACC-257; experiment: Antiproliferative activity against human UACC257 cells after 72 hrs by ViaLight assay; assay type: functional; conditions: UACC-257, 72 h
[9] = test system: HeLa; experiment: Antiproliferative activity against human HeLa cells after 72 hrs by ViaLight assay; assay type: functional, cell-based
[10] = read-out: LC50 (the source's name)
[11] = read-out: pLC50 (the source's name) (converted)

Sequence of CDK9/cyclin T1 (O60563 whole entry): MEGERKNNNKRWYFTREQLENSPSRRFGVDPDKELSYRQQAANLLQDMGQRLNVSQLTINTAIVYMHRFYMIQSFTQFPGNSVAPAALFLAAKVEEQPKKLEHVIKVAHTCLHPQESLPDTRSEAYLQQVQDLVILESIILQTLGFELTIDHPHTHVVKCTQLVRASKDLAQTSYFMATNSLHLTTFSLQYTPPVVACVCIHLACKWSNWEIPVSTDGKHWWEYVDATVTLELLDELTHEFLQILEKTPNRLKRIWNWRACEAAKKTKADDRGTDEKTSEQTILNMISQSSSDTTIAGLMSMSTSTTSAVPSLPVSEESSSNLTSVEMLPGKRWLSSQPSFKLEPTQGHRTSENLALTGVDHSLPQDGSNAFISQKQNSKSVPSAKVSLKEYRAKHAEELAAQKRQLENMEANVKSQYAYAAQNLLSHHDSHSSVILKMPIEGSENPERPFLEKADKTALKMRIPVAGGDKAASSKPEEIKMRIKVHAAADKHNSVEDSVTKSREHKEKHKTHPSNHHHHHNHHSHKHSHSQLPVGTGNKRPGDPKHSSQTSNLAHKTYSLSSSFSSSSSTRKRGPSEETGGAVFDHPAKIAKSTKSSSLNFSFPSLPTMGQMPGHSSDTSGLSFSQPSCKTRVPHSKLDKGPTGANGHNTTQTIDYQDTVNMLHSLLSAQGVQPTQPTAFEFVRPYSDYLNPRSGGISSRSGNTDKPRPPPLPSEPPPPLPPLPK
Sequence of CDK9/cyclin T1 (P50750 whole entry): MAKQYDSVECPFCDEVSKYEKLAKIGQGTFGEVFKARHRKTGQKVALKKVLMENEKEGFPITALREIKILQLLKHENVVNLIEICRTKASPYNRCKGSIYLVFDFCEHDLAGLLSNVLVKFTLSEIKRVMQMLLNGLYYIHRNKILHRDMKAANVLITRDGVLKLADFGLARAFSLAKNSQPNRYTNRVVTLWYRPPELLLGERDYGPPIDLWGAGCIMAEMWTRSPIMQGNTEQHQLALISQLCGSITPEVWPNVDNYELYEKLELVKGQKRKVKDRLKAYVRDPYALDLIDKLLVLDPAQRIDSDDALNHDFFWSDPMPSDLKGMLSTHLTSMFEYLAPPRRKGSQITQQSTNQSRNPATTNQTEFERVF
Sequence of Cyclin-dependent kinase 7/ cyclin H (P51946 whole entry): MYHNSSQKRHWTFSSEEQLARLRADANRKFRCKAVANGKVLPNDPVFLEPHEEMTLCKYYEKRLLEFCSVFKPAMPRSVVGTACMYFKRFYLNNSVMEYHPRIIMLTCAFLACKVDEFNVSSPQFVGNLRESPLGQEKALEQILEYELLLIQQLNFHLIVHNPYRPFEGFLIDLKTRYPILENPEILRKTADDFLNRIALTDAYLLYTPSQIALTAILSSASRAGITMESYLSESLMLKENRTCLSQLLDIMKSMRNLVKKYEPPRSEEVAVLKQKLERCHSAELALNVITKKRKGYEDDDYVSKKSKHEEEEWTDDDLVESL
Sequence of Cyclin-dependent kinase 7/ cyclin H (P50613 whole entry): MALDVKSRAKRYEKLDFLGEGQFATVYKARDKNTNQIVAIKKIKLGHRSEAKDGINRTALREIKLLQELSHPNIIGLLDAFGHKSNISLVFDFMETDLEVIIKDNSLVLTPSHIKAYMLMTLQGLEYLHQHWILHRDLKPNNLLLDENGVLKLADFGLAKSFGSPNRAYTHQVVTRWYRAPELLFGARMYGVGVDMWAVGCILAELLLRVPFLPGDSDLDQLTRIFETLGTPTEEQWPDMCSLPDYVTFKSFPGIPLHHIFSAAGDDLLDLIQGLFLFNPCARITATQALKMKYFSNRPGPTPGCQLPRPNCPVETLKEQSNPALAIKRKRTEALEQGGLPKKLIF

## CC[C@H](CO)Nc1nc(NCc2ccccc2)n2ncc(C(C)C)c2n1
[1]
  IC50: 0.5 µM
[2]
  GI50: 0.65 µM
  TGI: 9.26 µM
[2]; read-out: LC50
  CC50: > 100 µM
[2]; read-out: pGI50 (converted)
  GI50: 0.646 µM
[2]; read-out: pLC50 (converted)
  CC50: 100 µM
[2]; read-out: pTGI
  TGI: 9.33 µM
[3]
  IC50: 0.043 µM
[4]; read-out: GI50
  GI50: 1.16 µM
[4]; [10]
  CC50: 16.9 µM
[4]; read-out: TGI
  TGI: 3.82 µM
[4]; read-out: pGI50 (converted)
  GI50: 1.15 µM
[4]; [11]
  CC50: 17 µM
[4]; read-out: pTGI (converted)
  TGI: 3.8 µM
[5]; read-out: GI50
  GI50: 2.15 µM
[5]; [10]
  CC50: > 100 µM
[5]; read-out: TGI
  TGI: 54.8 µM
[5]; read-out: pGI50 (converted)
  GI50: 2.45 µM
[5]; [11]
  CC50: 100 µM
[5]; read-out: pTGI (converted)
  TGI: 55 µM
[6]; read-out: GI50
  GI50: 2.41 µM
[6]; [10]
  CC50: 58.1 µM
[6]; read-out: TGI
  TGI: 14.4 µM
[6]; read-out: pGI50 (converted)
  GI50: 3.02 µM
[6]; [11]
  CC50: 57.5 µM
[6]; read-out: pTGI (converted)
  TGI: 14.5 µM
[7]; read-out: GI50
  GI50: 1.56 µM
[7]; [10]
  CC50: 36.1 µM
[7]; read-out: TGI
  TGI: 5.29 µM
[7]; read-out: pGI50 (converted)
  GI50: 2.45 µM
[7]; [11]
  CC50: 36.3 µM
[7]; read-out: pTGI
  TGI: 5.25 µM
[8]; read-out: GI50
  GI50: 3.56 µM
[8]; [10]
  CC50: > 100 µM
[8]; read-out: TGI
  TGI: 15 µM
[8]; read-out: pGI50 (converted)
  GI50: 3.24 µM
[8]; [11]
  CC50: 100 µM
[8]; read-out: pTGI (converted)
  TGI: 24 µM
[9]
  Activity: Dose-dependent effect
